Assay results published in ChEMBL document CHEMBL4613271, “Application of Atypical Acetyl-lysine Methyl Mimetics in the Development of Selective Inhibitors of the Bromodomain-Containing Protein 7 (BRD7)/Bromodomain-Containing Protein 9 (BRD9) Bromodomains” (J Med Chem, 2020).
pIC50, pKd, pKi: −log10 of the molar value. Converted amounts (≈) assume the structure as drawn. The source made the active and inactive calls. No cut-off for these calls is given here.

What was measured:
[1] = target: T1, Bromodomain-containing protein 9 (Homo sapiens, UniProt Q9H8M2); test: Binding affinity to BRD9 (unknown origin) N-terminal bromodomain by TR-FRET assay
T1 sequence (Q9H8M2 whole entry): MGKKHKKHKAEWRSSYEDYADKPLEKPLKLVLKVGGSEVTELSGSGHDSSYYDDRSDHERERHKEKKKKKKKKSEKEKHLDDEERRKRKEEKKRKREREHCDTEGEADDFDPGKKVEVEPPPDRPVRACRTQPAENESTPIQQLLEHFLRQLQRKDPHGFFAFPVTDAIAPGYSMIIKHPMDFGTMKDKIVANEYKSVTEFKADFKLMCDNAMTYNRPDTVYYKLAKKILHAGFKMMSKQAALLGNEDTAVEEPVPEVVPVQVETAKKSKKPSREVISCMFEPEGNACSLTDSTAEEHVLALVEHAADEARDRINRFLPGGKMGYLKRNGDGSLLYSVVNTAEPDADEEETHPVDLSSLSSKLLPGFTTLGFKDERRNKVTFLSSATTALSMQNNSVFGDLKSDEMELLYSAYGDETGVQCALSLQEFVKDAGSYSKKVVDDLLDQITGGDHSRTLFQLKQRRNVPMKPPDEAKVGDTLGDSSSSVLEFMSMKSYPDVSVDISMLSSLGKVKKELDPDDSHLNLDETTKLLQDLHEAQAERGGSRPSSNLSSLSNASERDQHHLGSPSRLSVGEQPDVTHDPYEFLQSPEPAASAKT

[2] = target: T2, Bromodomain-containing protein 4 (Homo sapiens, UniProt O60885); test: Binding affinity to BRD4 (1) (unknown origin) N-terminal bromodomain by TR-FRET assay
[3] = Chromatographic hydrophobicity index, logD of the compound at pH 7.4 by HPLC analysis; assay type: physicochemical; conditions: buffer
[4] = target: T3, Bromodomain-containing protein 7 (Homo sapiens, UniProt Q9NPI1); test: Binding affinity to human partial length BRD7 (L125 to R254 residues) expressed in mammalian expression system by BROMOscan assay
T3 sequence (Q9NPI1 whole entry): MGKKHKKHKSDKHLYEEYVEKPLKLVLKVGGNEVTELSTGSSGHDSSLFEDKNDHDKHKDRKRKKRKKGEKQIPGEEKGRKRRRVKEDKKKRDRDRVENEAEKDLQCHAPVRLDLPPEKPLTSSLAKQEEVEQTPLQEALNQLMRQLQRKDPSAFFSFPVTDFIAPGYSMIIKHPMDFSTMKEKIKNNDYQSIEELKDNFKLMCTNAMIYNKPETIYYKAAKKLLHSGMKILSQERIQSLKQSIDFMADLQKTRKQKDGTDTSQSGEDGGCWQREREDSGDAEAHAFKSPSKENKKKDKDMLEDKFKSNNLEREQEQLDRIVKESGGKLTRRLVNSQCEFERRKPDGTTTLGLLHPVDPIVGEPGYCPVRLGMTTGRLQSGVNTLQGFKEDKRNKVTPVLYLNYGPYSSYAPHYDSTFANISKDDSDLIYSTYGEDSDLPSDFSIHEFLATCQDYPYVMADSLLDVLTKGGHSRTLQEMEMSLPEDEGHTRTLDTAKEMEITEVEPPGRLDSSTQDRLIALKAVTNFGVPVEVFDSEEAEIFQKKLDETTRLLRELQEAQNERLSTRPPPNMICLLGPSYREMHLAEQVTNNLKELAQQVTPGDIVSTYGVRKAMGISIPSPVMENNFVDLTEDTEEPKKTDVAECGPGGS

Peregrin = target: T4, Peregrin (Homo sapiens, UniProt P55201); test: Binding affinity to human partial length BRPF1 (E627 to G740 residues) expressed in bacterial expression system by BROMOscan assay
T4 sequence (P55201 whole entry): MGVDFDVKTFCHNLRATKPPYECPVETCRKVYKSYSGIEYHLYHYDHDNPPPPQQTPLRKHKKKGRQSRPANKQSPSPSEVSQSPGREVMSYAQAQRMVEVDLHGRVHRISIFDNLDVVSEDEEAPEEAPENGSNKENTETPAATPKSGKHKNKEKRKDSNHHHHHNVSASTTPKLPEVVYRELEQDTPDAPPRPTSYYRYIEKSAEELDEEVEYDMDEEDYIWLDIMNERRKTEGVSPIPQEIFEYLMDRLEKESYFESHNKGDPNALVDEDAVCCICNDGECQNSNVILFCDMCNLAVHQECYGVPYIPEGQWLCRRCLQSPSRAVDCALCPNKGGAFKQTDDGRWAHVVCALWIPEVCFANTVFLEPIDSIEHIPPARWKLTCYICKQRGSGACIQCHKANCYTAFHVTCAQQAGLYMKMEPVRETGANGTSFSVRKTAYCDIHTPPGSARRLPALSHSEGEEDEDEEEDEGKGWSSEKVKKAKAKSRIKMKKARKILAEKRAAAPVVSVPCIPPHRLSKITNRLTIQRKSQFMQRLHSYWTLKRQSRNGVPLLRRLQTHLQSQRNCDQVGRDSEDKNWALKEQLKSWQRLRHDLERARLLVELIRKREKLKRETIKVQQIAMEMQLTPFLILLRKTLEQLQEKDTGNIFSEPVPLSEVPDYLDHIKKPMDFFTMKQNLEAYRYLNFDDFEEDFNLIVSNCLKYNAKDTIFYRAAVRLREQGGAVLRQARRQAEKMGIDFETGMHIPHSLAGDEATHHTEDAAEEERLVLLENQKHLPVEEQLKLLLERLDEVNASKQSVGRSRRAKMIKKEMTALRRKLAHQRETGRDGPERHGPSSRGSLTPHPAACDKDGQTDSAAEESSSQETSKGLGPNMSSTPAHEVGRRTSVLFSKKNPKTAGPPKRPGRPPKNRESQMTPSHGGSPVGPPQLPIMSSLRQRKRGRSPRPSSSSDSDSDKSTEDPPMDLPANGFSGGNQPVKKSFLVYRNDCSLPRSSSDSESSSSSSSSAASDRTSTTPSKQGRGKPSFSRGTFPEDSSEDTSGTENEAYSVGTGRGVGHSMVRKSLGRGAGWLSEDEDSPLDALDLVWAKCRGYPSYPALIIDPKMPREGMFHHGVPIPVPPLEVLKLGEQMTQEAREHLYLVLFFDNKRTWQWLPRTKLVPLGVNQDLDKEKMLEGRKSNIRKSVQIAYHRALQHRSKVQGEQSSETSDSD

[5] = Solubility of compound by CLND method; assay type: physicochemical
[6] = Permeability by PAMPA; assay type: ADME; conditions: read-out: permeability
[7] = target: T2, Bromodomain-containing protein 4; test: Binding affinity to human partial length BRD4 (1) (N44 to E168 residues) expressed in bacterial expression system by BROMOscan assay
[8] = target: T5, Bromodomain-containing protein 7 (Homo sapiens) (UniProt Q9NPI1); test: Binding affinity to BRD7 in human HuT78 cells nuclear and chromatin extracts at 10 uM incubated for 45 mins by mass spectrometry based chemoproteomic binding assay; assay type: cell-based
T5 sequence (whole entry): T3 sequence (Q9NPI1 whole entry)

[9] = target: B-cell CLL/lymphoma 7 protein family member A (Homo sapiens) (UniProt Q4VC05); test: Binding affinity to BCL7A in human HuT78 cells nuclear and chromatin extracts at 10 uM incubated for 45 mins by mass spectrometry based chemoproteomic binding assay; assay type: cell-based
Chain of B-cell CLL/lymphoma 7 protein family member A (Homo sapiens) (Q4VC05 whole entry): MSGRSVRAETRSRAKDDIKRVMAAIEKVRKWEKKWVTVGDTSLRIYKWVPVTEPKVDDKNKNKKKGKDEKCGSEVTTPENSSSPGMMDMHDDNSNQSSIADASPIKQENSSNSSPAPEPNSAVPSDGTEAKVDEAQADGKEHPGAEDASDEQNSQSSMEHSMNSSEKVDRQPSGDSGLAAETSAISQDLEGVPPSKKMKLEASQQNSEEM

[10] = target: B-cell CLL/lymphoma 7 protein family member B (Homo sapiens) (UniProt Q9BQE9); test: Binding affinity to BCL7B in human HuT78 cells nuclear and chromatin extracts at 10 uM incubated for 45 mins by mass spectrometry based chemoproteomic binding assay; assay type: cell-based
Chain of B-cell CLL/lymphoma 7 protein family member B (Homo sapiens) (Q9BQE9 whole entry): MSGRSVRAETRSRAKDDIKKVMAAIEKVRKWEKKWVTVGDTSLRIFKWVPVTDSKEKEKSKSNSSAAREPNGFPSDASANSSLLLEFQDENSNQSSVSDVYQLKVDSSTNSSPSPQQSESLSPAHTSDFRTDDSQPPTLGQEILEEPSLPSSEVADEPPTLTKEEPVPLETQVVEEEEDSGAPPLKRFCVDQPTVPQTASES

[11] = target: Protein polybromo-1 (Homo sapiens) (UniProt Q86U86); test: Binding affinity to PBRM1 in human HuT78 cells nuclear and chromatin extracts at 10 uM incubated for 45 mins by mass spectrometry based chemoproteomic binding assay; assay type: cell-based
[12] = target: SWI/SNF-related matrix-associated actin-dependent regulator of chromatin subfamily A member 2 (Homo sapiens) (UniProt P51531); test: Binding affinity to SMARCA2 in human HuT78 cells nuclear and chromatin extracts at 10 uM incubated for 45 mins by mass spectrometry based chemoproteomic binding assay; assay type: cell-based
Chain of SWI/SNF-related matrix-associated actin-dependent regulator of chromatin subfamily A member 2 (Homo sapiens) (P51531 whole entry): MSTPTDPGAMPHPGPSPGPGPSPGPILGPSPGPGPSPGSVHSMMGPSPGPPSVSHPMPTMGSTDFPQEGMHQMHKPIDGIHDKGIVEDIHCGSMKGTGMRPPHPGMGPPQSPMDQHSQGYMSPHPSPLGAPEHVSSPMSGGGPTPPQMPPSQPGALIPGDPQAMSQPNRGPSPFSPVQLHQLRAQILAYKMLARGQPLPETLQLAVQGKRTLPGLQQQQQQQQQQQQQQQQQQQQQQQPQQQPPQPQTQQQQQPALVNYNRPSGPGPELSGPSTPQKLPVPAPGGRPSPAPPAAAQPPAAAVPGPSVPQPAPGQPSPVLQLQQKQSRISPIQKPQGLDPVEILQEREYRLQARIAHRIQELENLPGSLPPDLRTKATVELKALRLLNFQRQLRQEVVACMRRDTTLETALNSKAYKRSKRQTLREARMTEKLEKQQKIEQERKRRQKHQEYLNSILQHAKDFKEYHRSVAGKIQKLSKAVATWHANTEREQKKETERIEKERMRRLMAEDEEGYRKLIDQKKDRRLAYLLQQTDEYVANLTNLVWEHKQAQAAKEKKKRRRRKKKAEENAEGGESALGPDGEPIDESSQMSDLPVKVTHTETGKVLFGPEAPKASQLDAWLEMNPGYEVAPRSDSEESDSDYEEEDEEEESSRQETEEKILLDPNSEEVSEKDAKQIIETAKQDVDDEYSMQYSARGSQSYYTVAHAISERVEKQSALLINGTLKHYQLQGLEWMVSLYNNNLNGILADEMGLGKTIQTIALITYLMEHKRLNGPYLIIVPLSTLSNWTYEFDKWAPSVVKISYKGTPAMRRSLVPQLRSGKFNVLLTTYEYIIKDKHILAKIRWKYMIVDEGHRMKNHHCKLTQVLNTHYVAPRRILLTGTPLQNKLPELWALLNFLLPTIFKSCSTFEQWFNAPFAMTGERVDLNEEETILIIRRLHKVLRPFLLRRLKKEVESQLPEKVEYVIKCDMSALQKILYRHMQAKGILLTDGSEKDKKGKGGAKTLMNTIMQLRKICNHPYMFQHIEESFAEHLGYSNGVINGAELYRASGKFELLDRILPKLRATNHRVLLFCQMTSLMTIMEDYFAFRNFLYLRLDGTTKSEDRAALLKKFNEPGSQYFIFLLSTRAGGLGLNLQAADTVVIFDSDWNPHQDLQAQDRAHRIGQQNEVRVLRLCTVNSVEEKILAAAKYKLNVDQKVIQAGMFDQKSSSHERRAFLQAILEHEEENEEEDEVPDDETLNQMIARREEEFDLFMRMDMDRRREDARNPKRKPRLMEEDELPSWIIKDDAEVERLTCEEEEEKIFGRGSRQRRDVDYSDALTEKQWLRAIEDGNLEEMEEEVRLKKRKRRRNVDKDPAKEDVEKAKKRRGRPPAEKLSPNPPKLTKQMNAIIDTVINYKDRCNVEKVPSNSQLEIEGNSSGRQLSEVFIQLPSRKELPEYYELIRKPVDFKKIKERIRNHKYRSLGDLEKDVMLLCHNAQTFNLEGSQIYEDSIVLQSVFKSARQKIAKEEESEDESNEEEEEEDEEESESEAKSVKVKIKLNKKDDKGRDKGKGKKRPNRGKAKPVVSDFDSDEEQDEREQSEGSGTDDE

[13] = target: SWI/SNF-related matrix-associated actin-dependent regulator of chromatin subfamily A member 4 (Homo sapiens) (UniProt P51532); test: Binding affinity to SMARCA4 in human HuT78 cells nuclear and chromatin extracts at 10 uM incubated for 45 mins by mass spectrometry based chemoproteomic binding assay; assay type: cell-based
Chain of SWI/SNF-related matrix-associated actin-dependent regulator of chromatin subfamily A member 4 (Homo sapiens) (P51532 whole entry): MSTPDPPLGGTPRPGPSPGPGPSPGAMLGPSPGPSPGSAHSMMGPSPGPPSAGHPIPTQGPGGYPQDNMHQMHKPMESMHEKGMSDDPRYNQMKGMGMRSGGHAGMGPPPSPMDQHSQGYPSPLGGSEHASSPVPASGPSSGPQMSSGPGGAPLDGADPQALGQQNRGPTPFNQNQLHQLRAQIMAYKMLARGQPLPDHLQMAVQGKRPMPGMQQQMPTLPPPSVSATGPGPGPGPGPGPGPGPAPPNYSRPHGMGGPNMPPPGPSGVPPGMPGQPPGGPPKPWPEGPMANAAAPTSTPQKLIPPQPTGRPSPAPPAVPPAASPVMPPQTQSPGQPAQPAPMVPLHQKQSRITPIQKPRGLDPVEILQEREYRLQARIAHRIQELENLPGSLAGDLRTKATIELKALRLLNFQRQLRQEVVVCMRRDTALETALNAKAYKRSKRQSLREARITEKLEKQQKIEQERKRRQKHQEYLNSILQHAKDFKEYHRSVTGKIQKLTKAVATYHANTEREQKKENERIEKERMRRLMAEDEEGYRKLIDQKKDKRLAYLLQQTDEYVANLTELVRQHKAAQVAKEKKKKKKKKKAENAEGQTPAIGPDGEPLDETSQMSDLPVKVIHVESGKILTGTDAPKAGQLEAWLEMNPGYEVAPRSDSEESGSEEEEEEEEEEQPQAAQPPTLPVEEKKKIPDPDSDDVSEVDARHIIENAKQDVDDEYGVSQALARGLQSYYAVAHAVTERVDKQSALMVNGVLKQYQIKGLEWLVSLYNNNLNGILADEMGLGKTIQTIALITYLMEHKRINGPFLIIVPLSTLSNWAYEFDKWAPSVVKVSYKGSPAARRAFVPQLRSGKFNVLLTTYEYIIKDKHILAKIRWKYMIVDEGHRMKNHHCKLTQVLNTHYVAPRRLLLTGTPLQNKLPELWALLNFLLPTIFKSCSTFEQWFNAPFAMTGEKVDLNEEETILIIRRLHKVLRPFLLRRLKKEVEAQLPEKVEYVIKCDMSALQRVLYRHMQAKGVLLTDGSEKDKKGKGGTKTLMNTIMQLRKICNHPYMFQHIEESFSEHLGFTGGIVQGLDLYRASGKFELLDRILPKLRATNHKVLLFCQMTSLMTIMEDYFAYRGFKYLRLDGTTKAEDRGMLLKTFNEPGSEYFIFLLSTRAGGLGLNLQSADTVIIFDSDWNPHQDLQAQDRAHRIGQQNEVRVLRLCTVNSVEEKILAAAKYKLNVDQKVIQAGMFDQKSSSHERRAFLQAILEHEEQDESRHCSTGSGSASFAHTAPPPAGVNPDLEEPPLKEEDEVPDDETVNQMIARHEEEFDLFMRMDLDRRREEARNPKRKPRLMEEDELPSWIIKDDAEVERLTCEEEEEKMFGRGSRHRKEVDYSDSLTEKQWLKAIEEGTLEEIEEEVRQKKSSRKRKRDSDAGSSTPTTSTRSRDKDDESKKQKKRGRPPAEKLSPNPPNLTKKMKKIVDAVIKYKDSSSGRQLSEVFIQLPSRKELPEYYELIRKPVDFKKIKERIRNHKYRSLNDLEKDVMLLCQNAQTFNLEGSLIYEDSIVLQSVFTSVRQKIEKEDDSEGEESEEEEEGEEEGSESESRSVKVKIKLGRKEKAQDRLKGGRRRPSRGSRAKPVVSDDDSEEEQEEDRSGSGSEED

[14] = target: T1, Bromodomain-containing protein 9
Description: Binding affinity to human partial length BRD9 (R130 to V259 residues) expressed in bacterial expression system by BROMOscan assay

Homo sapiens = organism: Homo sapiens; test: Selectivity index, ratio of IC50 for binding affinity to BRD4 (1) (unknown origin) N-terminal bromodomain to IC50 for binding affinity to BRD9 (unknown origin) N-terminal bromodomain
[15] = target: T3, Bromodomain-containing protein 7; test: Binding affinity to BRD7 (unknown origin)
[16] = target: T1, Bromodomain-containing protein 9; remark: listed apart in the source
[17] = Drug distribution in human HeLa cells assessed as intracellular influx/efflux ratio by mass spectrometry; assay type: ADME, cell-based

Row | Compound | pIC50 [1] | pIC50 [2] | chromatographic logD [3] | pKi [4] | pKi (Peregrin) | solubility kinetic [5] [µg/mL] | Papp [6] [×10⁻⁶ cm/s] | pKi [7] | Activity [8] | Activity [9] | Activity [10] | Activity [11] | Activity [12] | Activity [13] | pKi [14] | fold selectivity (Homo sapiens) | pKd [15] | pKd [16] | Ratio [17]
1 | Cc1c(NCc2ccccc2N2CCN(C)CC2)cnn(C)c1=O | 6.70 | < 4.30 | 1.6 | 7.60 | 6.60 | 178 (≈ 544 µM) | 33 | 4.60 | Active | Active | Active | Active | Active | Active | 7.40 | > 250 |  |  | 
2 | C/C=C/Cn1cc(-c2cc(OC)c(C(=O)N3CCOCC3)cc2OC)c2cc[nH]c2c1=O |  |  |  |  |  |  |  |  |  |  |  |  |  |  |  |  | 7.00 | 8.70 | 
3 | CCCCc1c(NCc2ccccc2N2CCN(C)CC2)cnn(C)c1=O |  |  | 3.5 | 6.30 | < 4.50 | ≥ 228 | 25 | < 4.50 |  |  |  |  |  |  | 7.20 |  |  |  | 0.52
